Reference: a melting point compilation (Tetko et al.; mined from patent text by program, amines drawn as free bases though some values may be those of a salt)

melting point [°C]	SMILES
97 to 99	Cc1[nH]nc(Oc2ccc([N+](=O)[O-])cc2C(F)(F)F)c1C
212 to 214	O=C(O)c1cc(C(=O)C2CCCCC2)cc2c1OC(c1ccccc1)(c1ccccc1)O2
160 to 162	C[C@@H](c1ccc(-c2ccc(C#N)cn2)cc1)N1CC[C@](CC(C)(C)O)(c2ccccc2)OC1=O
132	CC(C)Oc1ccc([N+](=O)[O-])cc1OCCN1C(=O)c2ccccc2C1=O
158 to 160	Cc1c(N2C[C@H]3CCOC[C@@]3(N)C2)c(F)cc2c(=O)c(C(=O)O)cn([C@@H]3C[C@@H]3F)c12
111 to 114	CCC(C)(C(=O)c1ccc(N2CCOCC2)cc1)N1CCOCC1 (configuration not stated)
93 to 94	O=[N+]([O-])c1cnccc1Oc1ccc(Cl)cc1
126 to 128	Clc1cc2c(nn1)CCCCCCCCCC2
111 to 112	CCNC(=O)n1nc(Oc2ncc(C(F)(F)F)cc2Cl)c(Cl)c1C
215 to 218	CN1CCN(Cc2cnc(Nc3cc(-c4cccc(-n5ncc6cc(C(C)(C)C)cc(F)c6c5=O)c4CO)nn(C)c3=O)cn2)CC1
151 to 152	COC(=O)CCSc1nc(C(N)=O)cs1
105 to 108	Cc1ccc2c([N+](=O)[O-])c(F)ccc2n1
155 to 156	CCOC(=O)c1cnc(C)nc1NCc1ccc(-c2ccccc2-c2nnnn2C(c2ccccc2)(c2ccccc2)c2ccccc2)cc1
119 to 120	CN1CCN(c2ccc(CCCC(=O)N3CCC(c4ccc(Cl)cc4)CC3)cc2)CC1
245 to 247	CCOC(=O)N1CCN(c2ncnc3[nH]ncc23)CC1
112 to 122	CCCN1CCC(Cc2ccc3c(c2)c(Cc2ccc(C(=O)NS(=O)(=O)c4ccccc4C)cc2OC)cn3C)C1=O (configuration not stated)
> 250	NC(=O)Cc1ccc(N/C=C2\C(=O)Nc3ccccc32)cc1
260	Cc1cc(C2=NNC(=O)SC2C)cc2c1NC(=O)C2(C)C (configuration not stated)
310 to 330	Cc1c(-c2cccc(F)c2)sc2nc(N)[nH]c(=O)c12
139 to 140	Nc1cc(C(=O)O)cc(OCc2ccsc2)c1-c1ccccc1
186	O=C1c2ccccc2C(=O)N1OS(=O)(=O)c1ccccc1
119 to 129	Cc1cccc(-c2nc(C(C)C)[nH]c2-c2ccc(F)c(-c3ccc(NS(=O)(=O)C4CC4)cc3)c2)n1
132	C=CS(=O)(=O)Nc1c(C)cc([N+](=O)[O-])cc1C
115 to 117	C#CCOc1ccc(C(=O)C=Cc2cccnc2)c(O)c1

melting point [°C]	SMILES
107 to 116	CCCCC(=O)Nc1ccc([N+](=O)[O-])cc1
167 to 169	CS(=O)(=O)Nc1cc(F)cc(C(O)CN)c1 (configuration not stated)
174 to 175	CCC(=O)Nc1cccc(NC(=O)C(C)C)c1
236 to 237	CC(C)Cn1c(C(=O)O)c(-c2ccc(F)cc2)c2cc(OCc3ccccc3)ccc2c1=O
145 to 147	O=C1c2ccccc2OC(CCCl)CN1Cc1ccccc1 (configuration not stated)
197 to 199	Cc1c(C(=O)c2ccccc2F)n(N2C(=O)c3ccccc3C2=O)c2ccccc12
158	O=C(Nc1ccc(F)cc1)O[C@@H]1CN=C(c2ccccc2)O[C@H]1c1ccccc1 (racemic)
97 to 99	CC(C)(C)c1cc(-c2ccc(F)cc2)cc(C(C)(C)C)c1O
125 to 127	CCOC(=O)c1c(C(C)(C)O)nc(SC)n1Cc1ccc(-c2ccccc2-c2nnn[nH]2)cc1
262 to 264	CC1COCc2nc3c(N)nc4ccc(O)cc4c3n21 (configuration not stated)
252 to 253	Cc1c(Br)c(=O)c(C(=O)O)c(-c2ccccc2)n1C
174 to 175	Cc1cc(C)cc(N2CCN(C(=O)NCC(c3ccccc3)c3ccccc3)CC2)c1
167 to 168	CC(=O)c1ccc2c(c1)OC(C(=O)O)CO2 (configuration not stated)
219	OC1CSC(Oc2cnccc2-c2ccc(F)cc2)C(O)C1O (configuration not stated)
150 to 151	CC1(C)Oc2ccccc2-n2c(CN3CCOCC3)ccc21
136 to 137	CC1(C)CC(S(=O)(=O)Cc2c(Cl)nn(C(F)F)c2C(F)(F)F)=NO1
271 to 272	Cc1c(C)c2c(c(C)c1NC(=O)c1ccc(F)cc1)C(c1ccc(C(C)C)cc1)C1(CCN(C)CC1)O2 (configuration not stated)
219 to 220	C[Si](C)(C)c1ccc2cc(C(=O)Nc3cnc4sc(CO)nc4c3)n(Cc3nccs3)c2c1
192 to 193	Cc1cc(NC(=O)C(=O)N2C(C)CCCC2C)cc(C)c1S(=O)(=O)C[N+](=O)[O-] (configuration not stated)
65 to 66	OCC=C[C@@H]1O[C@H]1C#CC#CC#Cc1ccccc1 (relative stereo)
109 to 125	O=C(Nc1cc2c(cn1)[nH]c1ccccc12)c1cccs1
101 to 102	C=CCOc1ccc2cc(S(N)(=O)=O)sc2c1
254 to 255	Nc1nc(Nc2ccc(S(N)(=O)=O)cc2)sc1C(=O)c1sc(Br)cc1Br
149 to 150	O=C(O)CCCCCCCCn1c(-c2ccccc2)nc(-c2ccccc2)c1-c1ccccc1

melting point [°C]	SMILES
> 230	Cc1ccc(-c2ccccc2C(=O)Nc2ccc(C(=O)N3CCc4sc(NC(=N)N)nc4-c4ccccc43)cc2)cc1
96	O=S(=O)(c1ccccc1)n1ccc2c(OCC3CO3)cccc21 (configuration not stated)
74	C=CCOc1cc(N)c([N+](=O)[O-])cc1I
182 to 183	CCOC(=O)c1cc(=O)c2c(CC)cc(Cl)cc2[nH]1
66.1	Cc1ccc(-c2ccc([Si](C)(C)C)cc2)nc1
> 250	O=Cc1c[nH]c2c1ccc1c3cc(-c4ccc(F)cc4)ccc3[nH]c12
172 to 174	CC(C)c1cc2ncccc2cc1Oc1cnc(NC(CO)CO)nc1N
49 to 59	COC(=O)c1cc(Cl)cc(CC=O)c1O
182 to 183	COC(=O)c1ccc(Cc2cn(C)c3ccc(C=C(C)C(=O)O)cc23)c(OC)c1
96 to 99	O=C1CC(=O)OC(CCc2ccccc2)(C2CCCC2)C1 (configuration not stated)
132	NC(=NO)c1nc(Cl)c(-c2c(F)cccc2Cl)c(Cl)c1Br
125 to 127	Oc1ccccc1OCCCN1CCC(=C(c2ccc(F)cc2)c2ccc(F)cc2)CC1
203 to 205	Cc1cc(Cl)cc2c(=O)oc(-c3cc(Br)nn3-c3ncccc3Cl)nc12
250	CCC(C(=O)C(C)C(O)C(C)CCc1ccc(C)c(O)c1C(=O)O)C1OC(CC)(C2CCC(O)(CC)C(C)O2)CC1C (configuration not stated)
94 to 95	Cc1cc(-c2ccnc(C#N)c2)n(-c2ccc(F)cc2)n1
182	O=S1(=O)N(CCCN2CCN(c3ccc(O)cc3)CC2)c2cccc3c2N1CCC3
169 to 171	Clc1ccc(Cn2cc(C=Cc3cccnc3)c3cc(OCc4ccc5ccccc5n4)ccc32)cc1
172 to 175	Nc1cccc(-c2ccc(CCN3CCN(C(=O)NCc4ccccc4)CC3)cc2)n1
> 300	Cn1cc(C(=O)O)c2nc3ncccc3cc2c1=O
149 to 151	COc1ccc(S(=O)(=O)N2Cc3cc(C)ccc3N(C(=O)c3ccccc3-n3cccn3)CC2C(=O)O)cc1 (configuration not stated)
160 to 161	CCOc1nn(Cc2ccc(OCc3cn4c(-c5ccccc5)cccc4n3)cc2)cc1CCC(=O)O
62 to 64	COc1nnc(-c2ccccc2)cc1C
208 to 209	O=C1Cc2c(ccc3ccc(C(O)C(F)(F)F)cc23)O1 (configuration not stated)
147 to 148	CC(C)(C)C(NC(=O)Cc1ccc2cccnc2c1)NC(=NC#N)Nc1cccc2ncccc12 (configuration not stated)

melting point [°C]	SMILES
101 to 102	CCOC(=O)C1=Cc2cc(Cl)cc(Br)c2OC1C(F)(F)F (configuration not stated)
160 to 165	CC(C)(C)OC(=O)NNC(=O)c1cc(=O)c(OCc2ccccc2)c[nH]1
296 to 298	CC(=C1SC(=O)NC1=O)c1ccc(OCCOc2c(-c3ccc(F)c(F)c3)n(C)c3cc(Cl)ccc3c2=O)cc1
120 to 121	Cn1ccnc1Sc1ccc([N+](=O)[O-])cc1
70 to 72	Cc1nc(CC(C)C)c(C#N)c(-c2ccc(Cl)cc2)c1C(=O)OC(C)(C)C
101 to 107	Cc1cc(Cl)c(C(N)=O)c(Cl)c1
253 to 255	CCc1sc(NC(=O)C2=C(O)c3ccc4ccccc4c3S(=O)(=O)N2C)nc1C
206 to 208	Cc1ccc(C(=O)Nc2ccccc2C(N)=O)cc1
79 to 85	COc1ccc(C(=O)C(CCc2cccc(OC)c2)c2ccccc2)cc1 (configuration not stated)
198 to 199	CCCCNc1c(NCc2ccccc2)cc(C(=O)O)cc1S(N)(=O)=O
155 to 157	O=C(NCCO)/C(=C/c1ccc(OC(F)F)cc1)NC(=O)c1ccc(OCCc2ccccc2)cc1
288 to 290	CC(C)(C)C(=O)c1c[nH]c2ncc(-c3ccc(N4CCN(S(C)(=O)=O)CC4)cc3)nc12
218 to 219	CC(C)Cn1c(CNC(=O)OC(C)(C)C)c(-c2ccc(F)cc2)c2cc(OCC(N)=O)ccc2c1=O
114 to 116	O=c1oc(-c2ccccc2)cc(O)c1SCCCc1ccccc1
124 to 126	O=C(c1ccccc1)c1ccc2nc(Br)c(C(F)(F)F)nc2c1
104 to 105	COC(=O)C(=Cc1ccc(OCCc2nc(-c3ccccc3)oc2C)cc1)C(=O)OC
109 to 111	COC(=O)/C(=N/N(C)C)c1ccc(OCCOc2ccc3ccccc3c2)cc1
91 to 92	C[C@@H]1CC(=O)CC(C)(C)C1=O
137	CNS(=O)(=O)c1ccc2ccccc2c1
184 to 185	Cc1c(-c2ccncn2)nc2n(c1=O)CCCN2CC(=O)c1ccccc1
240 to 250	COC(=O)c1ccc(-c2nc3cc(Cl)c(Cl)cc3[nH]2)cc1
221 to 222	CS(=O)(=O)c1ccc(-c2[nH]c3ccccc3c2-c2ccccc2)cc1
198	c1ccc2c(c1)-c1ccccc1C21c2ccccc2-c2ccccc21

SMILES	melting point [°C]
Fc1ccc2c(c1)NCc1ccccc1O2	94
CC(C)(C)c1cc([N+](=O)[O-])cc(C(C)(C)C)c1O	167 to 168
